In PMC6309587 (Anaerobe, 2018):

What was measured:
C. difficile 630Δerm = assay: Minimum inhibitory concentration; type: cell-based, Clostridioides difficile; details: with or without LL-37 (Supl. Table 1)
[1] = system: vanZ1 (CD1240) transcription in 630Δerm; assay: vanZ1 expression by qRT-PCR during growth in antimicrobials; type: cell-based, Clostridioides difficile

| Compound | teicoplanin MIC of 630Δerm whether or not LL-37 was present (C. difficile 630Δerm) | increase of vanZ1 expression during growth in LL-37 [1] |
| --- | --- | --- |
| teicoplanin | remained unchanged | – |
| CC[C@H](C)[C@H](NC(=O)[C@H](CCCCN)NC(=O)[C@H](CCC(=O)O)NC(=O)[C@H](CCCCN)NC(=O)[C@H](CO)NC(=O)[C@H](CCCCN)NC(=O)[C@H](CCCNC(=N)N)NC(=O)[C@H](Cc1ccccc1)NC(=O)[C@H](Cc1ccccc1)NC(=O)[C@H](CC(=O)O)NC(=O)CNC(=O)[C@H](CC(C)C)NC(=O)[C@@H](N)CC(C)C)C(=O)NCC(=O)N[C@@H](CCCCN)C(=O)N[C@@H](CCC(=O)O)C(=O)N[C@@H](Cc1ccccc1)C(=O)N[C@@H](CCCCN)C(=O)N[C@@H](CCCNC(=N)N)C(=O)N[C@H](C(=O)N[C@H](C(=O)N[C@@H](CCC(N)=O)C(=O)N[C@@H](CCCNC(=N)N)C(=O)N[C@H](C(=O)N[C@@H](CCCCN)C(=O)N[C@@H](CC(=O)O)C(=O)N[C@@H](Cc1ccccc1)C(=O)N[C@@H](CC(C)C)C(=O)N[C@@H](CCCNC(=N)N)C(=O)N[C@@H](CC(N)=O)C(=O)N[C@@H](CC(C)C)C(=O)N[C@H](C(=O)N1CCC[C@H]1C(=O)N[C@@H](CCCNC(=N)N)C(=O)N[C@H](C(=O)N[C@@H](CCC(=O)O)C(=O)N[C@@H](CO)C(=O)O)[C@@H](C)O)C(C)C)[C@@H](C)CC)C(C)C)[C@@H](C)CC [LL-37] | – | ~ 37 fold |
